From PMC5818482, “Experimental study of the anti-tumour activity and pharmacokinetics of arctigenin and its valine ester derivative” (Scientific Reports, 2018)
≈ marks a conversion by molar mass, not a printed value. Where “and” joins values, the source holds several entries; their conditions need not be identical. Equal entries are not always repeated. Where two headings read alike, the source gives them in different places.

Key:
[1] = system: H22 hepatocellular carcinoma; experiment: In vivo anti-tumour experiment in H22 tumour-bearing mice (tumour growth, body weight, immune organ indexes); conditions: 14 days
From the text: SPF (specific pathogen free) grade, male ICR mice with body weights ranging from 19 to 21 g were obtained from the Laboratory Animal Quality Testing Center of Jilin Province. The ICR mice were divided into 7 groups as follows: the normal group, the model group, the cyclophosphamide (CTX) group, the ARG group, the high dose ARG-V group, the middle dose ARG-V group and the low dose ARG-V group. H22 hepatocarcinoma cells were purchased from the Institute of Biochemistry and Cell Biology, CAS.
(§1) To prepare the ascitic tumour-bearing model, 0.2 mL of the cell suspension (1 × 10^5 cells/mouse) was injected into the shoulder of the right limb subcutaneously in each mouse. Twenty-four hours after the tumour inoculation with H22 cells, the ICR mice were divided into 7 groups as follows: the normal group, the model group, the cyclophosphamide (CTX) group, the ARG group, the high dose ARG-V group, the middle dose ARG-V group, and the low dose ARG-V group. The positive control group received CTX at a dosage of 25 mg/kg by intraperitoneal injection. The model group and the normal group were treated with the same amount of normal saline by P.O. once a day. The mice were given an ARG suspension solution mixed with sodium carboxymethyl cellulose at a daily dose of 40 mg/kg, and ARG-V dissolved in saline at different dosages was administered orally. The mice in each group were treated continuously for 14 days. Before and after each drug administration, the size of the tumours were measured, and the weights of the mice were recorded. Twenty-four hours after the last administration, the mice were killed by cervical dislocation, and blood samples were collected from the eyes of the mice. The tumour, spleen, and thymus of the mice were taken out and weighed on an electronic balance.

H22 tumour-bearing mice = experiment: Serum ALT, AST, BUN and CRE in H22 tumour-bearing mice; conditions: for Serum ALT / Serum AST: Fig. 2(a); for BUN / CRE: Fig. 2(b)
Protocol: as §1
AST and ALT are clinical indexes of liver function, used in medicine to judge whether the liver is damaged. BUN and CRE are used to judge whether the kidney is damaged. They were analysed by a commercially available reagent kit according to the instructions.

[2] = system: serum cytokines TNF-α, IL-2, VEGF; experiment: Serum cytokines (TNF-α, IL-2, VEGF) by ELISA in H22 tumour-bearing mice; assay type: in vivo, ICR mice; conditions: for Expression level of IL-2: compared to the tumour model group; for Expression level of IL-2 / Serum TNF-α level: Fig. 2(c); for Serum VEGF: Fig. 2(d)
Protocol: as §1
The serum levels of the cytokines IL-2, IL-6, VEGF and TNF-α were analysed using a commercially available ELISA kit according to the manufacturer’s instruction.

[3] = Nitrite scavenging activity, diazo coupling spectrophotometric method (in vitro anti-tumour experiment)
From the text: Numerous methods for nitrite clearance have been reported, such as spectrophotometric, chromatographic-mass spectrometric, electrochemical, and fluorescence methods. Considering various factors, we decided to use diazo coupling spectrophotometry to perform this experiment. […] On the other hand, it may be that ARG-V also has the ability to bind nitrite such that the nitrite content decreased, achieving the purpose of clearing nitrite.
Our team has studied the […] scavenging activity of ARG and ARG-V using diazo coupling spectrophotometric method.

[4] = Solubility according to the Chinese Pharmacopoeia, 2015 edition; assay type: physicochemical; conditions: for Solubility in Acetonitrile: solvent acetonitrile; for Solubility in Acetonitrile:water 45:55: solvent acetonitrile:water 45:55; for Solubility in Cloroform: solvent chloroform; for Solubility in Ethyl acetate: solvent ethyl acetate; for Solubility in Water: solvent water
Protocol: Solubility is a physical property of the drug. The reaction was performed according to the Chinese Pharmacopoeia, 2015 edition.

[5] = Pharmacokinetics after oral (intragastric) administration to rats, plasma ARG by HPLC, 3P97 fit; assay type: in vivo, Wistar rats; conditions: for AUC / CL/F(s): intragastric, X ± SD, n = 6; for AUC value: oral
Protocol: Male Wistar rats (8 weeks, 230–250 g) were purchased from Liaoning Changsheng Biotechnology Co., Ltd. (Certificate No. SCXK-2015-0001) and acclimated to the laboratory environment for 1 week.
After the frozen plasma thawed, a 0.2 mL rat plasma sample was placed in an Eppendorf tube containing 5 µL of the IS working solution and 1 mL of acetonitrile with 0.1% formic acid and mixed evenly with a turbine mixer for 3 minutes. It was then separated by centrifugation (12000 rpm, 10 min, 4 °C). The supernatant was withdrawn and evaporated to dryness under N2. The dry residue was reconstituted by mixing it with 50 μL of acetonitrile for 1 minute and separated by centrifugation (16000 rpm, 5 min, 4 °C), and a 20 μL aliquot was injected into the HPLC system for analysis.
The rats received ARG and ARG-V by oral administration. Blood samples were obtained via the oculi chorioideae vein before oral administration and at 1, 3, 5, 10, 15, 30, 45, 60, 90, 120, 150, 180, 240, and 360 min after administration. The whole blood samples were separated by centrifugation (8000 rpm, 10 min), and the plasma was obtained and stored at −20 °C until analysis.
Analytes were separated on a Thermo BDS HYPERSIL C18 column (4.6 × 250 mm, 5 μm) at a flow rate of 1.0 mL/min. The column was maintained at 30 °C. The mobile phase consisted of acetonitrile and 0.1% formic acid water (45:55 v/v). Detection was done at a wavelength of 280 nm.
The values are presented as the mean ± standard deviation (SD). The concentration-time curve was drawn, and data were processed using the 3P97 software.

[6] = Stability of ARG QC samples in rat plasma; assay type: in vitro ADME; conditions: three concentrations; room temperature 12 hours, −20 °C for a month, three freeze-thaw cycles
Protocol: The ARG stock solution was diluted with plasma to make quality control (QC) samples, and the QC samples were prepared at three concentrations of low, medium and high (0.02, 0.1, and 2 μg/mL). The QC samples were kept at room temperature for 12 h, and freeze-thaw cycles were repeated 3 times. The QC samples were kept at −20 °C for 30 days.

Beagle dogs = system: Beagle dogs; design: method as in earlier work; conditions: cited from earlier work
[7] = design: method as in PMID 27685612; conditions: patients with advanced pancreatic cancer refractory to gemcitabine; second peaks indicate enterohepatic circulation; cited from earlier work
[8] = 25 mg/kg intraperitoneal, mean ± SD, n = 8
[9] = concentration 0.125 mg/mL, in % (unit assumed)
[10] = concentration 0.25 mg/mL, in % (unit assumed)
[11] = concentration 0.5 mg/mL, in % (unit assumed)
[12] = concentration 1 mg/mL, in % (unit assumed)
[13] = concentration 2 mg/mL, in % (unit assumed)
[14] = concentration 4 mg/mL, in % (unit assumed)
[15] = 40 mg/kg oral daily, mean ± SD, n = 8
[16] = first of three concentrations (low dosage)
[17] = second of three concentrations (middle dosage)
[18] = third of three concentrations (high dosage)

Compound: O=P1(N(CCCl)CCCl)NCCCO1 (stereo not drawn) [CTX, Cyclophosphamide]
- Increase of body weight ([1]; 25 mg/kg intraperitoneal): 4.37 g
- Inhibitory rate ([1]; 25 mg/kg intraperitoneal): 72.06%
- Spleen index [1, 8]: 4.40 ± 0.40 mg/g
- Thymus index [1, 8]: 1.24 ± 0.20 mg/g
- Tumor weight [1, 8]: 0.50 ± 0.11 g
- Serum ALT (H22 tumour-bearing mice; compared to the model group): obviously increased
- Serum AST (H22 tumour-bearing mice; compared to the model group): obviously increased
- Expression level of IL-2 [2]: obviously decreased
- Serum TNF-α level ([2]; compared with the model group): significantly decreased
- Serum VEGF ([2]; compared with the model group): decreased significantly

Compound: O=C1O[C@H]([C@@H](O)CO)C(O)=C1O [VC]
- IC50 (nitrite scavenging) [3]: 0.69 mg/mL (≈ 3.92 mM)
- Clearance rate on nitrite ([3]; concentration 0.125 mg/mL): 7.30 ± 0.06
- Clearance rate on nitrite ([3]; concentration 0.25 mg/mL): 17.23 ± 0.00
- Clearance rate on nitrite ([3]; concentration 0.5 mg/mL): 25.84 ± 0.03
- Clearance rate on nitrite ([3]; concentration 1 mg/mL): 54.49 ± 0.02
- Clearance rate on nitrite ([3]; concentration 2 mg/mL): 96.32 ± 0.00
- Clearance rate on nitrite ([3]; concentration 4 mg/mL): 97.75 ± 0.00

Compound: COc1cc(C[C@H]2C(=O)OC[C@@H]2Cc2ccc(OC)c(OC)c2)ccc1O [ARG, Arctigenin]
- Solubility in Acetonitrile [4]: very soluble
- Solubility in Acetonitrile:water 45:55 [4]: very soluble
- Solubility in Cloroform [4]: freely soluble
- Solubility in Ethyl acetate [4]: freely soluble
- Solubility in Water [4]: almost insoluble
- IC50 (nitrite scavenging) [3]: 17.49 mg/mL (≈ 47 mM)
- Clearance rate on nitrite [3, 9]: 17.60 ± 0.02
- Clearance rate on nitrite [3, 10]: 23.41 ± 0.02
- Clearance rate on nitrite [3, 11]: 27.72 ± 0.03
- Clearance rate on nitrite [3, 12]: 31.09 ± 0.02
- Clearance rate on nitrite [3, 13]: 34.46 ± 0.02
- Clearance rate on nitrite [3, 14]: 39.14 ± 0.07
- Inhibitory rate ([1]; 40 mg/kg oral daily): 26.26%
- Tumor weight [1, 15]: 1.32 ± 0.34 g
- BUN (H22 tumour-bearing mice; compared to the CTX group): no significant difference
- CRE (H22 tumour-bearing mice; compared to the CTX group): no significant difference
- Serum ALT (H22 tumour-bearing mice; compared to the model group): decreased
- Serum AST (H22 tumour-bearing mice; compared to the model group): decreased
- AUC ([5]; high dosage): 25419.859 ± 5497.001 (ng/mL)*min
- CL/F(s) ([5]; high dosage): 0.009 ± 0.003 mg/kg/min/(ng/mL)
- AUC ([5]; low dosage): 13687.547 ± 3050.502 (ng/mL)*min
- CL/F(s) ([5]; low dosage): 0.004 ± 0.001 mg/kg/min/(ng/mL)
- AUC ([5]; middle dosage): 18971.963 ± 5515.267 (ng/mL)*min
- CL/F(s) ([5]; middle dosage): 0.006 ± 0.003 mg/kg/min/(ng/mL)
- AUC value [5, 16]: 228 ng·h/mL
- AUC value [5, 17]: 316 ng·h/mL
- AUC value [5, 18]: 424 ng·h/mL
- Stability in rat plasma QC samples [6]: good results
- Toxicity in Beagle dogs (Beagle dogs; 60 mg/kg group, subcutaneous injection, except the stimulus response at the administration location): no overt toxicity
- Toxicity in Beagle dogs (Beagle dogs; repeated subcutaneous injection of large doses): can induce injury to the liver and biliary duct
- Form of ARG in patients [7]: exists as arctigenin glucuronide (AGG)

Compound: COc1ccc(CC2COC(=O)C2Cc2ccc(OC(=O)C(N)C(C)C)c(OC)c2)cc1OC (stereo not drawn) [ARG-V]
- Solubility in Acetonitrile [4]: slight soluble
- Solubility in Acetonitrile:water 45:55 [4]: very soluble
- Solubility in Cloroform [4]: freely soluble
- Solubility in Ethyl acetate [4]: almost insoluble
- Solubility in Water [4]: freely soluble
- IC50 (nitrite scavenging) [3]: 2.19 mg/mL (≈ 4.64 mM)
- Clearance rate on nitrite [3, 9]: 20.22 ± 0.00
- Clearance rate on nitrite [3, 10]: 27.90 ± 0.05
- Clearance rate on nitrite [3, 11]: 35.21 ± 0.07
- Clearance rate on nitrite [3, 12]: 45.51 ± 0.01
- Clearance rate on nitrite [3, 13]: 64.04 ± 0.01
- Increase of nitrite removal ability compared with ARG ([3]; concentration 4 mg/mL): more than 75%
- Clearance rate on nitrite [3, 14]: 69.10 ± 0.04
- Inhibitory rate ([1]; 20 mg/kg oral daily): 42.46%
- Tumor weight ([1]; 20 mg/kg oral daily, mean ± SD, n = 8): 1.03 ± 0.19^**,##,a g
- Inhibitory rate ([1]; 40 mg/kg oral daily): 69.2% and 69.27%
- Tumor weight [1, 15]: 0.55 ± 0.15^**,aa g
- Inhibitory rate ([1]; 80 mg/kg oral daily): 63.13%
- Tumor weight ([1]; 80 mg/kg oral daily, mean ± SD, n = 8): 0.66 ± 0.17^**,#,aa g
- BUN (H22 tumour-bearing mice; compared to the CTX group): significant difference
- Serum ALT (H22 tumour-bearing mice; compared to the model group): decreased
- Serum AST (H22 tumour-bearing mice; compared to the model group): decreased
- BUN (H22 tumour-bearing mice; compared to the model group): decreased significantly
- CRE (H22 tumour-bearing mice; compared to the model group): decreased significantly
- Expression level of IL-2 [2]: significantly higher
- Serum VEGF ([2]; compared with the model group): decreased
- Serum TNF-α level ([2]; three doses, compared with the CTX group): increased significantly
- AUC value [5, 16]: 253 ng·h/mL
- AUC value [5, 17]: 391 ng·h/mL
- AUC value [5, 18]: 574 ng·h/mL
